Assay results taken from ChEMBL document CHEMBL1201862, “PubChem BioAssay data set” (2004).
Active and inactive are the calls of the source.

Experiments:
[1] = cytotoxicity in HMLE control line with eGFP shRNA, dose response, counter-screen for HMLE_sh_ECad selective toxicity project, cell-based, HMLE_sh_eGFP, luminescence (AID 463074); assay type: functional, Homo sapiens;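 further: HMLE human mammary epithelial cells expressing control shRNA against eGFP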
[2] = growth suppression of beta-catenin-knockout colon cells, dose response, cell-based, HCT116, human colon tumor (AID 1045); assay type: functional;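 further: HCT116 colon tumor cells with beta catenin knocked out; cells exposed to compound for 60 hours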
[3] = Luminescence Cell-Based Dose Retest to Confirm Inhibitors of Cancer Stem Cells. [Related pubchem assays (depositor defined):AID2717, AID2721]; assay type: functional; conditions: Homo sapiens
[4] = growth suppression of PTEN-null colon cells, dose response, cell-based, HCT116 PTEN knockout (AID 1047); assay type: functional;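 further: HCT116 colon tumor cells with PTEN knocked out; cells exposed to compound for 60 hours before readout; potency for loss of cell viability measured by luminescence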
[5] = biological target: T1, Dual specificity protein phosphatase 3 (Homo sapiens, UniProt P51452); assay: SAR VHR1 Fluorescent Assay for In Vitro dose response studies. [Related pubchem assays (depositor defined):AID1654, AID1661, AID1878, AID1992, AID2004, AID2070, AID2085]; assay type: functional
T1 sequence (P51452 whole entry): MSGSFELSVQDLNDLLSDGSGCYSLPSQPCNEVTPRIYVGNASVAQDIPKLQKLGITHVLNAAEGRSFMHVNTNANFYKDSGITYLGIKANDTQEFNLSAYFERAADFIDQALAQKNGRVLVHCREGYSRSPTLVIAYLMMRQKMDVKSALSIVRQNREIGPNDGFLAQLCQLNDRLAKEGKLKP

[6] = biological target: Tyrosine-protein phosphatase non-receptor type 5 (Homo sapiens, UniProt P54829); assay: STEP phosphatase inhibitors, confirmation, biochemical, fluorescence intensity, uHTS hits (AID 602372); assay type: functional; conditions: read-out: IC50_Mean
Tyrosine-protein phosphatase non-receptor type 5, sequence (P54829 whole entry): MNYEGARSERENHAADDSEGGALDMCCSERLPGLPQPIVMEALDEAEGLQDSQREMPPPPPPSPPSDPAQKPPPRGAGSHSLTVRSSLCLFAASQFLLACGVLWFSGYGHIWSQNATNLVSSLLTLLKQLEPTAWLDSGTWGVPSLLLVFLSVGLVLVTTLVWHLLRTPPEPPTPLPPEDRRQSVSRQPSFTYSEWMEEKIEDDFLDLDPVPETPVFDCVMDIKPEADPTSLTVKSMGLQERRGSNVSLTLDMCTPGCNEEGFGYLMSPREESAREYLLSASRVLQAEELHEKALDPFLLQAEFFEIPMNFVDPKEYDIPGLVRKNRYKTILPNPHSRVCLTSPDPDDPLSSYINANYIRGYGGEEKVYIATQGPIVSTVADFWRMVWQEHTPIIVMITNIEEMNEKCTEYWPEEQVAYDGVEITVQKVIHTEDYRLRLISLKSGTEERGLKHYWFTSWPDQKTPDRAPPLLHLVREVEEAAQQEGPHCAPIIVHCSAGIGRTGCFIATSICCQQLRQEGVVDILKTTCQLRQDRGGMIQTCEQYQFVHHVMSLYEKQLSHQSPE

[7] = biological target: T1, Dual specificity protein phosphatase 3; assay: VHR phosphatase inhibition, dose response, selectivity assay for STEP inhibitor project, biochemical (AID 602374); assay type: functional; conditions: read-out: IC50_Mean
[8] = biological target: Tyrosine-protein phosphatase non-receptor type 11 (Homo sapiens, UniProt Q06124); assay: SHP2 phosphatase inhibition, dose response, selectivity assay for STEP inhibitor project, biochemical (AID 602367); assay type: functional; conditions: read-out: IC50_Mean
Tyrosine-protein phosphatase non-receptor type 11, sequence (Q06124 whole entry): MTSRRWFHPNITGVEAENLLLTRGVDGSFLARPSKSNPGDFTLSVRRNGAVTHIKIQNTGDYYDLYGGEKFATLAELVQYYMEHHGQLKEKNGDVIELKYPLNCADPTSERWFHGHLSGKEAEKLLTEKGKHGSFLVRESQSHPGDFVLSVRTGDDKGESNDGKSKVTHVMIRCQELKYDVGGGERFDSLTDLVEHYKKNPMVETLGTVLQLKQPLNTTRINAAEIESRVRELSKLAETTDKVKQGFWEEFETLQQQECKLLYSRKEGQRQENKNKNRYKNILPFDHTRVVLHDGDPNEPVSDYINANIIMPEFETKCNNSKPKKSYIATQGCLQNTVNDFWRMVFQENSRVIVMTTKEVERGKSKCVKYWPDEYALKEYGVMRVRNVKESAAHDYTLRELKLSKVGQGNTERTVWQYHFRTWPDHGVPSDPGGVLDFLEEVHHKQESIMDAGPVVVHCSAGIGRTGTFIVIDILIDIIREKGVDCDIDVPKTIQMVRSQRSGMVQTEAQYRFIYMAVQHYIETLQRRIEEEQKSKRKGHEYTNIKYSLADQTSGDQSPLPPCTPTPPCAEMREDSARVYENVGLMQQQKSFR

[9] = biological target: T2, Dual specificity protein phosphatase 6 (Rattus norvegicus, UniProt Q64346); assay type: functional;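 further: confirmatory in vitro dose-response testing of MKP-3 inhibition; recombinant His-tagged MKP-3 made in E. coli BL21 with OMFP substrate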
T2 sequence (Q64346 whole entry): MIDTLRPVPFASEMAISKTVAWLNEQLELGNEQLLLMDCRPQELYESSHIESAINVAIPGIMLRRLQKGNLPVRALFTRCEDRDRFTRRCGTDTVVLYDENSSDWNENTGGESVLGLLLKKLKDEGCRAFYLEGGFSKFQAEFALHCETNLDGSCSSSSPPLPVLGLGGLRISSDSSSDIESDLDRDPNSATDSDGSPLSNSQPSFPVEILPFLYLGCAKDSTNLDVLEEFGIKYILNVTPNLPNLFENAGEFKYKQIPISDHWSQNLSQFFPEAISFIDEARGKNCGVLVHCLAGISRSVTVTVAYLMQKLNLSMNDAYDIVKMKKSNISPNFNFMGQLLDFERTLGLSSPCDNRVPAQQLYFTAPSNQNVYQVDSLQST

[10] = biological target: T1, Dual specificity protein phosphatase 3; assay: SAR VHR1 absorbance Assay for In Vitro dose response studies. [Related pubchem assays (depositor defined):AID1654, AID1661, AID1878, AID1992, AID2004]
[11] = biological target: T3, Tyrosine-protein phosphatase non-receptor type 7 (Homo sapiens, UniProt P35236); assay: redox-dependent HePTP inhibition, mechanism study, biochemical, fluorescence (AID 2068); assay type: functional
T3 sequence (P35236 whole entry): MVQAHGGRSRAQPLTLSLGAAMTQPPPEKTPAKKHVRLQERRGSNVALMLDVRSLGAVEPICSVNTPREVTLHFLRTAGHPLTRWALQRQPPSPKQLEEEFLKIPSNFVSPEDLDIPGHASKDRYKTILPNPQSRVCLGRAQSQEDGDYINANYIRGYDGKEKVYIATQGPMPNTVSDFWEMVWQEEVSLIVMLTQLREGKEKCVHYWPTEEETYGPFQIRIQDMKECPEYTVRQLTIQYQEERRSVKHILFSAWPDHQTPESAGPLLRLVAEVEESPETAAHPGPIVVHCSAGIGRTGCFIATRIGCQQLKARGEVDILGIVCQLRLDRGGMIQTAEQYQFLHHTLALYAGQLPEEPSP

[12] = biological target: T1, Dual specificity protein phosphatase 3; assay: VHR1 phosphatase inhibitors, primary screen, biochemical, absorbance, uHTS (AID 1654)
[13] = biological target: T1, Dual specificity protein phosphatase 3; assay: VHR1 phosphatase inhibitors, biochemical (AID 1878)
[14] = biological target: T2, Dual specificity protein phosphatase 6; assay: MKP-3 phosphatase inhibitors, primary screen, biochemical, rat enzyme, in vitro (AID 425)
[15] = HEK293 cell cytotoxicity, dose response, cytotoxicity control, plate reader, cherry-picked samples (AID 743446); assay type: functional, cell-based
[16] = test system: BJ; assay: cytotoxicity toward Ras-transformed BJeLR fibroblasts, dose response, cell-based, alamar blue fluorescence, cherrypicked samples (AID 2631); assay type: functional; conditions: Homo sapiens;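 further: confirmatory dose-response assay in RAS-dependent BJ fibroblasts engineered with TERT, LT and ST, with cytotoxicity read by fluorescence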
[17] = A549 cell cytotoxicity, dose response, cytotoxicity control, plate reader, cherry-pick, antagonist series (AID 743412); assay type: functional, cell-based
[18] = test system: BJ; assay: cells; assay type: functional, cell-based; conditions: Homo sapiens
[19] = cytotoxicity in HEK-293T NF-kB-Luc cells, dose response, cytotoxicity control for B/T-cell NF-kB inhibitor project, cell-based, uHTS hits (AID 489019); assay type: functional;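 further: IC50 reflects cytotoxicity as loss of cell viability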
[20] = HepG2 cell cytotoxicity, dose response, cytotoxicity control, plate reader, cherry-pick, antagonist series (AID 743416); assay type: functional, cell-based
[21] = inhibitors of SNCA 5'UTR-driven reporter translation, confirmation, H4 neuroglioma cells, luminescence (AID 1988); assay type: functional, cell-based
[22] = test system: BJ; assay: cytotoxicity toward BJ-TERT fibroblasts, dose response, cell-based, RAS-independent, luminescence (AID 1933); assay type: functional; conditions: Homo sapiens
[23] = inhibitors of SNCA 5'UTR-driven translation, confirmation, luminescence, H4 neuroglioblastoma cells, dose confirmation (AID 2454); assay type: functional, cell-based;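 further: H4 neuroglioblastoma cells carrying an alpha-synuclein 5'UTR luciferase reporter; potency for inhibition of the luciferase signal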
[24] = biological target: T4, Heat shock factor protein 1 (Mus musculus, UniProt P38532); assay: inhibition of MG132-induced HSE-luciferase signal, confirmation, cell-based, NIH3T3, luminescence, dose retest (AID 2382); assay type: functional;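 further: NIH3T3 fibroblasts with HSF1-driven luciferase reporter stressed by proteasome inhibitor MG132; luminescence from HSF1-driven luciferase expression after 8 hours of MG132 stress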
T4 sequence (P38532 whole entry): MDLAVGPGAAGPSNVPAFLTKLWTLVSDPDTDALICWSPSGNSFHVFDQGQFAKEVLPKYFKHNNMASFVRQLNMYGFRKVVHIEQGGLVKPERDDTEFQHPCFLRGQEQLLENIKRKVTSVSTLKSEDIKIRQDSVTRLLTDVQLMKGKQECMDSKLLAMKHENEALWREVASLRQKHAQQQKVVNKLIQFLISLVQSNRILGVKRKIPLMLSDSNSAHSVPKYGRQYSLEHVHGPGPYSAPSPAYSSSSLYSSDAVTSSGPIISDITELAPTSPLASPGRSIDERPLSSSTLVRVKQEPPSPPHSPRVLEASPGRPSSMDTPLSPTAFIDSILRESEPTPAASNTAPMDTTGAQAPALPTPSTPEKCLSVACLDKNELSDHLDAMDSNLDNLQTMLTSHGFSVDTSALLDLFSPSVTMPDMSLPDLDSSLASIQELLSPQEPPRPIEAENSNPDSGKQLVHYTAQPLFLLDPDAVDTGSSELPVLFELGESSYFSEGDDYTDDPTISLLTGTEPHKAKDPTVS

[25] = test system: BJ; assay: cytotoxicity toward BJ-TERT-LT-ST fibroblasts, dose response, cell-based, RAS-independent, luminescence (AID 1935); assay type: functional; conditions: Homo sapiens;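 further: BJ fibroblasts immortalized with TERT plus LT and ST oncogenes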
[26] = luciferase reporter signal reduction – luminescence, H4-C neuroglioblastoma cells, dose response (AID 2458); assay type: functional, cell-based;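 further: H4 neuroglioblastoma cells stably carrying a luciferase reporter gene fusion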
[27] = cytotoxicity toward DRD oncogenic fibroblasts, dose response, cell-based, non-viral oncogenic, luminescence (AID 1934); assay type: functional; conditions: Homo sapiens
[28] = cells; assay type: functional, cell-based
[29] = inhibitors of firefly luciferase expression or activity, dose response, H4 neuroglioma cells, luminescence (AID 1990); assay type: functional, cell-based
[30] = MC4R antagonists, dose response, counter-screen for LGR2 antagonist project, cell-based, plate reader, cherry pick (AID 743444); assay type: functional;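 further: transfected HEK 293 cells stimulated with alpha-MSH peptide; potency of inhibitors of the alpha-MSH evoked signal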
[31] = test system: Jurkat; assay: antigen receptor-induced NF-kB inhibitors, dose response, Jurkat, luciferase reporter, luminescence, B- and T-cell (AID 489004); assay type: functional, cell-based; conditions: Homo sapiens;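 further: NF-kB luciferase reporter Jurkat cells stimulated with PMA plus ionomycin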
[32] = LGR2 antagonists, dose response, cell-based, HEK293, CRE-luciferase reporter, cherry pick, set 2 (AID 743343); assay type: functional;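 further: transfected cells were stimulated with diluted bursicon conditioned medium after compound addition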

In the case of `O=C(N/N=C/c1cn(-c2cccs2)nc1-c1ccccc1)c1ccccc1Br`, the AC50 [1] is reported as 23 µM (active), the EC50 [2] is reported as 31 µM (active) and the AC50 [3] is reported as 3.75 µM (active). The EC50 [4] was 30.2 µM (active).

In the case of `S=C(c1cn(CCOc2ccccc2)c2ccccc12)N1CCCC1`, the IC50 [5] is reported as > 99 µM (inactive), the IC50 [6] is reported as 17 µM (active) and the IC50 [7] is reported as 1.27 µM (active). For the same compound, the IC50 [8] was 5.47 µM (active), the IC50 [9] was > 99 µM (inactive) and the IC50 [10] was 0.727 µM (active). For the same compound, the IC50 [11] was 0.129 µM (active), the IC50 [12] was 3.97 µM (active) and the IC50 [13] was 8.8 µM (active). The IC50 [14] was > 158 µM (not active).

With `Nc1ncnc2c1ccn2[C@@H]1O[C@H](CO)[C@@H](O)[C@H]1O` [TUBERCIDIN] the AC50 [15] was 1.6 µM (active), the EC50 [16] was < 0.104 µM (active) and the AC50 [17] was 0.0912 µM (active). For the same compound, the EC50 [18] was 5.45 µM (inconclusive), the IC50 [19] was > 80 µM (inactive) and the AC50 [20] was 0.25 µM (active). The EC50 [21] was < 0.1 µM (active), the EC50 [22] was 2.08 µM (inconclusive) and the EC50 [23] was 0.204 µM (active). The EC50 [24] was 3.06 µM (active), the EC50 [25] was 5.04 µM (active) and the EC50 [26] was 0.252 µM (active). For the same compound, the EC50 [27] was 4.12 µM (active), the EC50 [28] was 0.223 µM (active) and the EC50 [29] was < 0.1 µM (active). The AC50 [30] was 3.98 µM (active), the IC50 [31] was 7.83 µM (active) and the AC50 [32] was 2.77 µM (active).
